In PMC7317212 (Chemmedchem, 2020):

Experiments:
mGAT1 [1] = biological target: T1, mGAT1 (Mus musculus, UniProt P31648); assay: MS Binding Assay with NO711 as native MS marker; conditions: for remaining activity at 100 µM: in presence of 100 μM compound, read-out: remaining specific NO711 binding (mGAT1)
T1 construct: expressed in transfected cells; host or cells: HEK293
Experimental: (§1) For compounds with pIC50 ([^3H]GABA uptake assay) or pK i (MS Binding Assays) values close to or above 5.0, these experiments were repeated twice and SEM have been calculated.
MS Binding Assays: The MS Binding Assays were performed with mGAT1 membrane preparations obtained from a stably mGAT1 expressing HEK293 cell line and NO711 as unlabeled marker in competitive binding experiments as previously described in detail.34 In short, test compounds were investigated at 7 concentrations in presence of 10 nM NO 711 in competition experiments. Non specific binding was defined as binding remaining in the presence of 100 mM GABA. Incubation was terminated by transfer of 200 μL per well onto a 96‐well filter plate (Acroprep, glass fibre, 1.0 μm, 350 μL, Pall, Dreieich, Germany) with a 12 channel pipette. After rapid vacuum‐filtration the filters were washed with ice cold 0.9 % NaCl (5×150 μL) and dried at 50 °C for 60 min. Afterwards, the filters were eluted with 100 μL methanol containing [^2H10]NO711 (1.4 nM) as internal standard per well into a deep‐well plate by application of vacuum. This step was repeated twice resulting in a total elution volume of 300 μL. Finally, a volume of 130 μL ammonium formate buffer (10 mM, pH 7.0) was added per well and the generated samples analyzed by LC‐ESI‐MS/MS using a API 3200 as described in detail previously.40

mGAT1 [2] = biological target: T1, mGAT1; assay: [^3H]GABA uptake assay, HEK293 cells expressing mGAT1; type: cell-based; conditions: for remaining activity at 100 µM: HEK293, in presence of 100 μM compound
Experimental: as §1
(§2) [^3H]GABA uptake assays: The [^3H]GABA uptake assays were performed according to Kragler et al.33 Cells were grown in 150 cm^2 plates to a confluence of 70–90 % up to passage 25. After detachment the cells were centrifuged 5 min at 500×g, washed for three times in phosphate buffered saline and, finally, resuspended in Krebs buffer (2.5 mM CaCl2, 1.2 mM MgSO4, 1.2 mM KH2PO4, 4.7 mM KCl, 11 mM glucose, 25 mM Tris, 119 mM NaCl, pH 7.2). The uptake assays were performed with aliquots of the resulting cell suspension (about 100000–200000 cells per well) in a total volume of 250 μl in 96 well 2.2 mL deep well plates. The cells were equilibrated for 25 min in Krebs buffer in the presence of the test compound at 37 °C in a gently shaking water bath. […] After addition of 25 μl of a solution containing [^3H]GABA (2.22 TBq/mmol, ARC, St Louis, MO, USA) and unlabeled GABA in Krebs (final concentration 8 nM [^3H]GABA and 32 nM unlabeled GABA for mGAT1, mGAT3, mGAT4 and 20 nM [^3H]GABA and 20 nM unlabeled GABA for mGAT2) the cells were incubated for further 4 min (mGAT1, mGAT3, mGAT4) or 10 minutes (mGAT2), respectively. The incubation was stopped by filtration through Sartorius MGC micro glass fiber filters pre‐soaked for 1 h in 0.9 % NaCl by means of a Brandell MWXR‐96TI cell harvester (Brandell, Gaithersburg, MD, USA) under reduced pressure. The filters were rinsed two times with cold 0.9 % NaCl and subsequently transferred to 96 well sample plates (Perkin Elmer LAS, Boston, MA, USA). After addition of 200 μl Rotiszint Eco Plus (Roth, Karlsruhe, Germany) per well the radioactivity was determined in a microbeta liquid scintillation counter (Perkin Elmer LAS, Boston, MA, USA). Non‐specific uptake was determined in presence of 10 mM GABA for mGAT1, mGAT3 and mGAT4 or 100 mM GABA for mGAT2, respectively. The results are expressed as means±S.E.M. of at least three separate experiments, each carried out in triplicate.

mGAT2 = biological target: T2, mGAT2 (Mus musculus, UniProt P31651); assay: [^3H]GABA uptake assay, HEK293 cells expressing mGAT2; type: cell-based; conditions: for remaining activity at 100 µM: HEK293, in presence of 100 μM compound; for IC50: [^3H]GABA uptake, pIC50±SEM
T2 construct: expressed in transfected cells; host or cells: HEK293
T2 sequence (P31651 1-614): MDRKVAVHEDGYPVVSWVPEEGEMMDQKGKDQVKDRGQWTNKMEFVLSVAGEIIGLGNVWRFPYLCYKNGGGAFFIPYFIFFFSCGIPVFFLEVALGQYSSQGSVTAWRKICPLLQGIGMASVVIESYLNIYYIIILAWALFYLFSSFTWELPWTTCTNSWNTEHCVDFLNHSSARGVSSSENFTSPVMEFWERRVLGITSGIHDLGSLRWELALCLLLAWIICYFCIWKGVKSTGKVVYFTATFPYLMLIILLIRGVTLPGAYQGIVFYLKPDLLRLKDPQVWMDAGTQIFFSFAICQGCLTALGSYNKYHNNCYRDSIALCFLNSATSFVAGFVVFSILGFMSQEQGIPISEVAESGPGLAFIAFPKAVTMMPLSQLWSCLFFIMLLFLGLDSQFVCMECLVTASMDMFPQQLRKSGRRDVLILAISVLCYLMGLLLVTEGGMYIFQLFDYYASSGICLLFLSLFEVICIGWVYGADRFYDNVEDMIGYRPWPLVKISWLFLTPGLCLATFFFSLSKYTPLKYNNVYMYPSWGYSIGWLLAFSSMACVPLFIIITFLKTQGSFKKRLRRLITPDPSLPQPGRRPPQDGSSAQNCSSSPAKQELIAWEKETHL
Experimental: as §1, §2

mGAT3 = biological target: T3, mGAT3 (Mus musculus, UniProt P31649); assay: [^3H]GABA uptake assay, HEK293 cells expressing mGAT3; type: cell-based; conditions: for remaining activity at 100 µM: HEK293, in presence of 100 μM compound; for IC50: [^3H]GABA uptake, pIC50±SEM
T3 construct: expressed in transfected cells; host or cells: HEK293
T3 sequence (P31649 1-602): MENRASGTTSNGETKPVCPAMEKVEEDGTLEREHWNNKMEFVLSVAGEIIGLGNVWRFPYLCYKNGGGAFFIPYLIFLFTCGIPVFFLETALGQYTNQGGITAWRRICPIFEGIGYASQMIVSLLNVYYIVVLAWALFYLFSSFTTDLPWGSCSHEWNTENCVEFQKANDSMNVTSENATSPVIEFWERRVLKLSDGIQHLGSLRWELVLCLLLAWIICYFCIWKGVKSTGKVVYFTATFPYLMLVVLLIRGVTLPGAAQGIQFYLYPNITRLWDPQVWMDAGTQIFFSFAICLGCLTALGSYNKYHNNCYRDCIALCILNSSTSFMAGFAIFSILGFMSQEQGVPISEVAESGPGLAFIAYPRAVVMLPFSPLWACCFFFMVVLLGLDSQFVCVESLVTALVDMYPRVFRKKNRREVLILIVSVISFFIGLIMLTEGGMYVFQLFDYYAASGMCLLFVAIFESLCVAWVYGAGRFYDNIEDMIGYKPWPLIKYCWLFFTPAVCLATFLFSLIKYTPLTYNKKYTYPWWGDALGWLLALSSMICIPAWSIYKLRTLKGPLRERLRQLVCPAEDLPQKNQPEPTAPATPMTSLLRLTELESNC
Experimental: as §1, §2

mGAT4 = biological target: T4, mGAT4 (Mus musculus, UniProt P31650); assay: [^3H]GABA uptake assay, HEK293 cells expressing mGAT4; type: cell-based; conditions: for IC50: [^3H]GABA uptake, pIC50±SEM; for remaining activity at 100 µM: HEK293, in presence of 100 μM compound
T4 construct: expressed in transfected cells; host or cells: HEK293
T4 sequence (P31650 1-627): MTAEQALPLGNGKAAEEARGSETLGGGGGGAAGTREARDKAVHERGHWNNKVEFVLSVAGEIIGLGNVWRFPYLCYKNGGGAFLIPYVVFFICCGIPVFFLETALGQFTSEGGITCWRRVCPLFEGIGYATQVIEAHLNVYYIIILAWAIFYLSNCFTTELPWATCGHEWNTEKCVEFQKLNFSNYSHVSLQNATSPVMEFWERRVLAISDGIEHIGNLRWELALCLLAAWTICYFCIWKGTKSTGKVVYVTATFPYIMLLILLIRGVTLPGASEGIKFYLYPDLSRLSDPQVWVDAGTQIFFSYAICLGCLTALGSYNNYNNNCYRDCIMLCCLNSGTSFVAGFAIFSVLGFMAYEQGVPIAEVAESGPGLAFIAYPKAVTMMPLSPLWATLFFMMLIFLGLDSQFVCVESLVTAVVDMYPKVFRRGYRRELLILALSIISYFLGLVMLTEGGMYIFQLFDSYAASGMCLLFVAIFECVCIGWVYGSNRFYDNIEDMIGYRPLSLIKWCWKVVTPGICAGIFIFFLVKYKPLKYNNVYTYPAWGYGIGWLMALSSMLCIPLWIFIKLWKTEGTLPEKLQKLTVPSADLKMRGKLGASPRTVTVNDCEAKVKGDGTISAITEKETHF
Experimental: as §1, §2

| remaining activity at 100 µM (mGAT1 [1]) [%] | remaining activity at 100 µM (mGAT1 [2]) [%] | remaining activity at 100 µM (mGAT2) [%] | remaining activity at 100 µM (mGAT3) [%] | IC50 (mGAT4) [µM] | remaining activity at 100 µM (mGAT4) [%] | IC50 (mGAT2) [µM] | IC50 (mGAT3) [µM] | Ki (mGAT1 [1]; MS Binding Assay, NO711 marker, pKi±SEM, read-out: pK i mGAT1 (converted)) [µM] | IC50 (mGAT1 [2]; [^3H]GABA uptake, pIC50±SEM) [µM] | SMILES |
| --- | --- | --- | --- | --- | --- | --- | --- | --- | --- | --- |
| 74.1 | 70.5 | 55.2 | 52.2 | 17 | – | – | – | – | – | COCc1ccc(C(OCCN2CCCC(C(=O)O)C2)(c2ccc(COC)cc2)c2ccc(OC)cc2)cc1 (racemic) [5 h, rac‐ 1‐(2‐{Bis[4‐(methoxymethyl)phenyl][4‐methoxyphenyl]methoxy}‐ethyl)piperidine‐3‐carboxylic acid] |
| 92.7 | 90.7 | 72.6 | 68.3 | – | 76.1 | – | – | – | – | COCc1ccc(C(OCCN2CCCC(C(=O)O)C2)(c2ccc(COC)cc2)c2ccc(COC)cc2)cc1 (racemic) [5 i, rac‐ 1‐(2‐{Tris[4‐(methoxymethyl)phenyl]methoxy}ethyl)piperidine‐3‐carboxylic acid] |
| 86.2 | 81.8 | 96.1 | 90.9 | – | 72.2 | – | – | – | – | COc1ccc(C(OCCN2CCCC(C(=O)O)C2)(c2ccc(CNCC(=O)O)cc2)c2ccc(OC)cc2)cc1 (racemic) [5 n, rac‐ 1‐{2‐[(4‐{[(Carboxymethyl)amino]methyl}phenyl)bis(4‐methoxy‐phenyl)methoxy]ethyl}piperidine‐3‐carboxylic acid] |
| 85.4 | 55.5 | – | – | – | 55.9 | 26.9 | 12.6 | – | – | CCOC(=O)C1CCCN(CCOC(c2ccc(C=O)cc2)(c2ccc(OC)cc2)c2ccc(OC)cc2)C1 (racemic) [12 a, rac‐ Ethyl 1‐{2‐[(4‐formylphenyl)bis(4‐methoxyphenyl)methoxy]ethyl}‐piperidine‐3‐carboxylate] |
| 62.1 | 67.9 | 78 | 77.1 | > 100 | 82 | – | – | – | – | COc1ccc(C(OCCN2CCCC(C(=O)O)C2)(c2ccc(OC)cc2)c2ccc(S(=O)(=O)N(C)C)cc2)cc1 (racemic) [5 c, rac ‐1‐(2‐{[4‐(N,N‐dimethylsulfamoyl)phenyl]bis[4‐methoxyphenyl]‐methoxy}ethyl)piperidine‐3‐carboxylic acid] |
| 82.3 | 94.4 | 69.5 | 89.1 | – | 56.3 | – | – | – | – | COc1ccc(C(OCCN2CCCC(C(=O)O)C2)(c2ccc(CNCCC(=O)O)cc2)c2ccc(OC)cc2)cc1 (racemic) [5 o, rac‐ 1‐{2‐[(4‐{[(2‐Carboxyethyl)amino]methyl}phenyl)bis(4‐methoxy‐phenyl)methoxy]ethyl}piperidine‐3‐carboxylic acid] |
| 55 | 78.1 | 91.6 | 58.7 | 12.6 | – | – | – | – | – | COc1ccc(C(OCCN2CCCC(C(=O)O)C2)(c2ccc(CO)cc2)c2ccc(OC)cc2)cc1 (racemic) [5 m, rac‐1‐(2‐{[4‐(Hydroxymethyl)phenyl]bis[4‐methoxyphenyl]methoxy}‐ethyl)piperidine‐3‐carboxylic acid] |
| 93.8 | 75.7 | 73.2 | 95.9 | – | 94.3 | – | – | – | – | CCOC(=O)C1CCCN(CCOC(c2ccc(OC)cc2)(c2ccc(OC)cc2)c2ccc(S(=O)(=O)N(C)C)cc2)C1 (racemic) [12 c, rac‐ Ethyl 1‐(2‐{[4‐(N,N‐dimethylsulfamoyl)phenyl]bis[4‐methoxyphenyl]‐methoxy}ethyl)piperidine‐3‐carboxylate] |
| – | 84.9 | 72.9 | 81.8 | 26.3 | – | – | – | 93.3 | – | COc1ccc(C(OCCN2CCCC(C(=O)O)C2)(c2ccc(OC)cc2)c2ccc3nccn3c2)cc1 (racemic) [5 d, rac‐ 1‐(2‐{Imidazo[1,2‐a]pyridin‐6‐ylbis(4‐methoxyphenyl)methoxy}‐ethyl)piperidine‐3‐carboxylic acid] |
| 77.2 | – | – | – | 57.5 | – | 13.2 | 19.5 | – | 40.7 | CCOC(=O)C1CCCN(CCOC(c2ccc(OC)cc2)(c2ccc(OC)cc2)c2ccc3nccn3c2)C1 (racemic) [12 d, rac‐ Ethyl 1‐(2‐{imidazo[1,2‐a]pyridin‐6‐ylbis(4‐methoxyphenyl)methoxy}‐ethyl)piperidine‐3‐carboxylate] |
